Data from US20150266864A1, “HETEROAROMATIC COMPOUNDS, METHOD FOR PREPARING THE COMPOUNDS, PHARMACEUTICAL COMPOSITIONS, USES AND METHOD FOR TREATING ACUTE AND CHRONIC PAIN” (CRISTÁLIA PRODUTOS QUÍMICOS FARMACÊUTICOS LTDA, priority 2012, published 2015).

Assays:
[1] = test system: Swiss mice; assay: Hot plate model, assay for acute pain; assay type: in vivo; conditions: ip, 32.25 μmol/kg, plate 52° C., compared to morphine sulfate at the same dose
Text: The antinociceptive activity (AA) of the present invention selected compounds (C3, C9, C11, C12, C13, C15 and C17) was investigated in hot plate model [Hot Plate Model LE7406, Scientific Inc.] described by Kuraishi et al. [Kuraishi, Y., Harada, Y., Aratani, S., Satoh, M., Takagi, H. Brain Research 1983.273, 245-2523]. This method is valid to evaluate the analgesic activity of substances acting on the central nervous system. Swiss mice weighing 20-25 g were placed on a metal plate heated up to 52° C. The animals were withdrawn from the hot plate at the time they lead their forepaws toward the mouth to lick, being this an indicative of pain second Le Bars et al. [Le Bars, D., Gozariu, M., Cadden, S. W. Animal models of nociception. Pharmacol. Rev. 2001, 53 (4), 597-652]. In this way, it was analyzed how long the animal, treated or not (control) with the analgesic substance, remained on the plate at 52° C.; the longest residence time of an animal on the plate was 35 seconds. This time limit (or cut off) (35 s) was determined by the average of three measurements of latency control values, obtained for each animal multiplied by three, to prevent any kind of tissue injury on the footpad of animals's paw due to long permanence on the heated surface. The protocol consisted in the intraperitoneal (ip) injection of the selected compounds of the present invention at a dose of 32.25 μmol/kg. The antinociceptive activity was evaluated at intervals of 10 minutes until effect completely disappear and, compared to morphine sulfate ([…]) at the same dose of 32.25 μmoles/kg (12.2 mg/kg). The investigated parameter is the latency of reflex to paw withdrawal in response to thermal stimulus. The results were expressed as percentage of AA, which was calculated according to Equation 1 for each experiment.

[2] = test system: Swiss mice; assay: Hot plate model, assay for acute pain; assay type: in vivo; conditions: ip, 32.25 μmol/kg
[3] = test system: Swiss-type male mice; assay: RotaRod performance test, motor coordination; conditions: for Mice residence time on the rotational cylinder: 9 rpm, cut off 180 s, mean ± SEM
Experimental: The assessment of motor coordination in mice, by the rotarod performance test, was carried out to detect any possible sedative or muscle relaxant effect caused by the compounds of the present invention, previously tested in acute and neuropathic pain models. This test was carried out according to the method of described by Dunham & Miya and animal motor coordination was evaluated using RotaRod apparatus [Dunham M. S. & Miya. R. T. (1957). J. Amer. Pharmac. Assoc. Sci. Edit. 1957, 46, 208-209].
The RotaRod apparatus (Model 412 EFF, Insight Equipements, Brazil) is a device that measures motor coordination and thus evaluates balance alterations in mice. The apparatus consists of an acrylic box splited into four compartments with a rotational cylinder among them. The cylinder rotates at constant speed driven by a motor and regulated to the constant speed mode of 5-37 revolutions per minute (rpm). In this study the speed was set up to 9 rpm.
To remain on the rotational cylinder, the animal needs to move around, so that the motor coordination can be quantified. The four compartments have drop detection system, through the impact, a microprocessor circuit, for timing the permanence of the animal at the compartment, and for counting the number of falls.
The day before the test, Swiss-type male mice (19-25 g) were placed on the rotational cylinder, set up to the constant speed mode of 9 rpm for adaptation and learning. A group of 10 mice were used for each tested compound, and the total period spent on the rotational cylinder (in seconds) was recorded for a period of 180 seconds (cut off time) and it was accept a maximum of three falls for each animal. Motor coordination was assessed at times 0 (before treatment), 15, 30, 60 and 120 minutes after compounds administration at a dose of 32.25 μmol/kg.
All compounds were administered intraperitoneally (ip).
The Student's t-test was also used to compare means between two experimental groups. Differences were considered significant when p<0.05.

[4] = test system: rats subjected to SNL; assay: Spinal nerve ligation (SNL) L5 model, thermal hyperalgesia; assay type: in vivo, rat
Experimental: (§1) This experimental model was proposed by Kim and Chung [Kim, S. H.; Chung, J. M. Pain 1992, 50: 355-363] and consists of ligation of spinal nerves. Male Wistar rats, 180-220 g, were anesthetized with a mixture of ketamine and xylazine (60 mg/kg and 5 mg/kg, respectively) intraperitoneally. After the dorsal region asepsy, an incision was made between L5 and S1. The L6 transverse process was removed for locating the nerves L4 and L5, which were carefully isolated, and tight ligation of the L5 nerve with 6.0 silk thread was made, interrupting flow of the axon of the nerve. After this procedure, para-spinal muscles and skin were sutured, and then a topical antiseptic was applied. False operated animals (sham) were subjected to the same procedure, however the spinal nerve was not ligated.
This method aims to evaluate the animal behavior in response to hyperalgesic phenomenon resulting from the injury induced by the ligament of spinal nerve (L5). In this regard, paw withdrawal in response to thermal stimulus was used, and the thermal stimulus was induced by the radiant heat of an incandescent lamp bulb. The paw withdrawal test was performed as described for the assessment of thermal hyperalgesia in the sciatic nerve chronic constrictive injury model.
(§2) Differences were considered significant when p<0.05.
(§3) The treatment started on the 7th day after surgery. Compounds were diluted in water or DMSO and administered through intraperitoneal route on daily basis, during 7 days, at a dose of […]. The effectiveness of tested compounds was assessed on days 1, 3, and 7 days after treatment, always before the next administration of the compound. Latencies were also assessed on days 1, 3, and 7 after treatment interruption.

[5] = test system: rats subjected to SNL; assay: Spinal nerve ligation (SNL) L5 model, mechanical allodynia (digital Von Frey); assay type: in vivo, rat
Experimental: as §1
To evaluate the development of mechanical allodynia, digital analgesimeter (Model EFF301; Insight Equipments), digitalized version coupled to a pointed filament (Von Frey model variant) was used. This test aims to assess changes in tactile sensitivity in response to a mechanical stimulus as a result of a neural damage. The device consisted of a hand-held force transducer fitted with a sensor tip, through which a pressure with increasing strength is applied against the footpad of the animals hindpaw to assess the threshold of paw withdrawal, that is, the digital analgesimeter records the maximal strength, in grams (g), in which the animal withstands until the paw withdrawal reflex.
Animals were placed in individual acrylic boxes and let to acclimate for 30 min before the beginning of the test. After this period, the thresholds of hindpaw withdrawal were determinded. For each hindpaw, five records of the withdrawal thresholds were made, and the average for each hindpaw was defined as the paw withdrawal threshold control.
as §3, §2

[6] = T 15 min after ip administration, 32.25 μmol/kg
[7] = T 30 min after ip administration, 32.25 μmol/kg (diazepam 2 mg/kg)
[8] = T 60 min after ip administration, 32.25 μmol/kg (diazepam 2 mg/kg)
[9] = T 120 min after ip administration, 32.25 μmol/kg (diazepam 2 mg/kg)
[10] = ip during 7 days, 32.25 μmol/kg

OC1(c2ccc(Cl)cc2)CCN(CCc2c[nH]nc2-c2ccc(F)cc2)CC1 [C13, 4-(4-chlorophenyl)-1-{2-[3-(4-fluorophenyl)-1H-pyrazol-4-yl]ethyl}piperidin-4-ol]
antinociceptive activity (AA), hot plate [1]: exhibit antinociceptive activity of intensity and kinetics similar to morphine sulfate | side effects compared to morphine [2]: no side effects of conventional morphine | melting point: 142 to 144 °C | Mice residence time on the rotational cylinder [3, 6]: 100.9 s | Mice residence time on the rotational cylinder [3, 7]: 95.5 s | Mice residence time on the rotational cylinder [3, 8]: 143.7 s | Mice residence time on the rotational cylinder [3, 9]: 152.4 s

CCN1CCN(CCc2c[nH]nc2-c2ccc(F)cc2)CC1.Cl.Cl.Cl.O.O.O [C12, 1-ethyl-4-{2-[3-(4-fluorophenyl)-1H-pyrazol-4-yl]ethyl}piperazine trihydrochloride trihydrate]
antinociceptive activity (AA), hot plate [1]: exhibit antinociceptive activity of intensity and kinetics similar to morphine sulfate | side effects compared to morphine [2]: no side effects of conventional morphine | animal residence time on the rotational cylinder compared to controls ([3]; 15 minutes after administration, 32.25 μmol/kg): equal to the time observed for the negative control, and significantly higher than the time observed for the control amitriptyline hydrochloride | Mice residence time on the rotational cylinder [3, 6]: 179.6 s | Mice residence time on the rotational cylinder [3, 7]: 178.6 s | Mice residence time on the rotational cylinder [3, 8]: 178.2 s | Mice residence time on the rotational cylinder [3, 9]: 179.8 s | reversal of hyperalgesia signs associated with neuropathic pain [4, 10]: effective in reverse the hyperalgesia and allodynia signs | increase on the latency vs control post-surgery ([4]; since the 3rd day of treatment, 32.25 μmol/kg ip): statistically significant increase | paw withdrawal threshold, mechanical allodynia ([5]; after 3 days of treatment, 32.25 μmol/kg ip, p<0.05): significant (p<0.05) paw withdrawal threshold | reversal of allodynia signs associated with neuropathic pain [5, 10]: effective in reverse the hyperalgesia and allodynia signs
